Test results: patent US12171834B2, “Compositions and methods for inhibiting the activity of LAR family phosphatases” (CASE WESTERN RESERVE UNIVERSITY, priority 2012, dated 2024)
“And” between values parts separate entries of the source, which are not always exact repeats. Equal entries are not always repeated.

Legend:
[1] = system: adult dissociated dorsal root ganglia neurons on gradients of CSPG; assay: spot assay: processes crossing CSPG (aggrecan) gradient; assay type: cell-based, rat; settings: for neurons extend processes that cross CSPG gradients: peptide added at time of plating
Procedure: Adult female rat sensory dorsal root ganglion (DRG) neurons were obtained and grown on gradients of the chondroitin sulfate proteoglycan aggrecan as previously described. Glass bottom delta-T time-lapse dishes were coated with Poly-L-Lysine (PLL) and incubated at room temperature overnight. Spots were created by dissolving 2 mg/ml aggrecan in calcium and magnesium free hanks balanced salt solution (HBSS). Eight 2 μl dots were placed into one half of each dish and given ample time to dry onto the glass. The dishes were finally coated in 10 μg/ml laminin for 3 hours at 37° C. Following incubation, six thousand adult dissociated DRG neurons were added to each dish in neural basal-A media supplemented with Glutamax, Penn/strep and B27. […] In this Example, the spot assay was conducted on glass coverslips with a few alterations from the technique used for time-lapse microscopy. Following PLL treatment, the coverslips were dried and coated with a small amount of nitrocellulose to increase adhesive interactions needed for spot formation. Following drying of nitrocellulose, 4 spots were dotted onto each coverslip (one in each quadrant) using 700 μg/ml aggrecan, 5 μg/ml laminin dissolved into HBSS. Following drying, the coverslips were coated in 5 μg/ml laminin at 37 degrees C. for 3 hours. 2,000 adult dissociated dorsal root ganglia neurons were added to each coverslip in neural basal-A media supplemented with Glutamax, Penn/strep and B27. In addition, peptides were added at the required concentration at the time of plating. Cells were allowed to grow for 5 days prior to fixation in 4% Paraformaldehyde. These peptides were ordered from Genscript and dissolved in water and stored long-term at −80° C. Peptides were added to media at time of neuronal plating. After 5 days in vitro, the cells were fixed and stained for mouse anti-B3Tubulin (green). The number of processes completely spanning the gradient were counted and normalized to the number of neuronal cell bodies on each individual spot.

[2] = system: contusive spinal cord injury in adult female Sprague-Dawley rats; assay: Basso, Beattie and Bresnahan (BBB) scale for post-SCI locomotion; assay type: in vivo, rat; settings: for average BBB score / BBB recovery over the course of the next 10 weeks: 5 μM, 500 μl subcutaneously daily; for BBB recovery over the course of the next 10 weeks: after 2 weeks post injury
Procedure: (§1) This Example describes methods of generating a moderate/severe contusive spinal cord injury with the Infinite Horizon device in adult female Sprague-Dawley rats for spinal cord injury (SCI) assays used in Examples 5-8. Briefly, rats were deeply anesthetized with a cocktail of ketamine/xylazine. Once under, the back was shaved and sterilized with Iodine and ethanol. Using a dorsal entry, the […] vertebrae 7-10 were exposed by a skin incision and at segments 8 and 9 a laminectomy was performed to expose the intact spinal cord. The spinal column and cord were stabilized in a stereotaxic frame prior to contusive impact. Finally, rats underwent a 250 kd Infinite Horizon contusion centered at the midline with no dwell time. Following muscle suturing and skin stapling, the animals were placed on a 37° C. hot pad and allowed ample access to food and water upon awakening from surgery. Pain was monitored, and animals in distress received a low dose of Marcaine at the injection site. Saline and Gentamycin (antibiotic) were given for 5 days post-surgery to prevent bladder infections. This experiment was performed start to finish 3 times. N−=15 ISP, N=11 vehicle and N=6 ILP.
(§2) Animals were randomly divided into three groups, vehicle control, ISP, or ILP. Lyophilized ISP or ILP peptide was first dissolved in sterile water at a concentration of 2.5 mM. To create individual treatments for each animal, the peptide was further diluted to a concentration of 5 μM in a vehicle solution of 5% DMSO in sterile saline. 25 ml of each treatment (ILP, ISP or vehicle) was alliquoted into 50 individual Eppendorf tubes, each containing 500 μl. The drugs were stored at −20 and thawed immediately prior to use. Each animal received 500 μl of either vehicle, 5 μM ISP or 5 μM ILP subcutaneously into the back above the lesion each day, starting 1 day after injury and lasting 7 weeks (49 treatments, 11 μg/rat/day).
Animals were allowed to freely roam on a table-top for three minutes while their hindlimb movements and locomotor patterns were being scored by a blinded observer according to the Basso, Beattie and Bresnahan scale for post-SCI locomotion (Basso et al, 1995). Behavior was performed at post injury days 1, 4, 7 and then weekly for 10 additional weeks. Statistical analysis was conducted by repeated measures 2 way Anova.

[3] = system: contusive spinal cord injury in adult female Sprague-Dawley rats; assay: terminal urodynamic analyses after spinal cord injury; assay type: in vivo, rat; settings: 14 weeks post injury
Procedure: as §1, with “ILP. […]” for “ILP.”
In a terminal experiment, animals were anesthetized with Urethane at 14 weeks post injury. […] Both muscle activity and pressure (measured through the catheter) were plotted in spike2.

[4] = system: 5HT expression in the lumbar spinal cord; assay: 5HT expression (axonal density) in lumbar spinal cord after spinal cord injury; assay type: in vivo, rat
Procedure: as §1
as §2, with “Each animal received 500 μl of either vehicle, 5 μM ISP or 5 μM ILP subcutaneously into the back above the lesion each day, starting 1 day after injury and lasting 7 weeks (49 treatments, 11 μg/rat/day).” left out
For axonal density analysis, the gray matter was outlined and mean pixel intensity was calculated in ImageJ. […] One section selected randomly every 200 μm was analyzed over a total distance of 2 cm […]. […]

[5] = system: contusive spinal cord injury in adult female Sprague-Dawley rats; assay: urinary behavior in metabolic cages after spinal cord injury; assay type: in vivo, rat
Procedure: as §1, §2
Animals were placed in metabolic cages overnight for a dark cycle (16 hours). The urine was separated and collected into a syringe linked to a force transducer. The increase in force corresponding to each individual void was plotted in spike-2. The graphs were sampled into excel and manually confirmed to count the total number of voids and the average volume of each void.

[6] = system: contusive spinal cord injury in adult female Sprague-Dawley rats; assay: recovery beyond vehicle across behaviors after spinal cord injury; assay type: in vivo, rat
Procedure: as §1
Animals were randomly divided into three groups, vehicle control, ISP, or ILP. Lyophilized ISP or ILP peptide was first dissolved in sterile water at a concentration of 2.5 mM. […]

[7] = system: contusive spinal cord injury in adult female Sprague-Dawley rats; assay: grid-walk test after spinal cord injury; assay type: in vivo, rat; settings: 12 weeks after spinal cord injury; for foot faults in the grid walk test versus vehicle: vehicle 6 foot-faults per meter
Procedure: as §1
as §2, with “Each animal received 500 μl of either vehicle, 5 μM ISP or 5 μM ILP subcutaneously into the back above the lesion each day, starting 1 day after injury and lasting 7 weeks (49 treatments, 11 μg/rat/day).” left out
Animals were allowed to freely roam on a wire grid (100 cm×75 cm, with 1 cm^2 gaps in the wire) 12 weeks after spinal cord injury. While an overhead camera tracked and calculated the total distance traveled (Ethovision), the number of foot-faults was counted manually by a blinded observer. […]

[8] = system: growth cones of adult sensory DRG neurons on gradients of CSPG aggrecan; assay: time-lapse microscopy of growth cone motility in CSPG spot assay; assay type: cell-based, rat; settings: 4-6 days in vitro
Procedure: Adult female rat sensory dorsal root ganglion (DRG) neurons were obtained and grown on gradients of the chondroitin sulfate proteoglycan aggrecan as previously described. Glass bottom delta-T time-lapse dishes were coated with Poly-L-Lysine (PLL) and incubated at room temperature overnight. Spots were created by dissolving 2 mg/ml aggrecan in calcium and magnesium free hanks balanced salt solution (HBSS). Eight 2 μl dots were placed into one half of each dish and given ample time to dry onto the glass. The dishes were finally coated in 10 μg/ml laminin for 3 hours at 37° C. Following incubation, six thousand adult dissociated DRG neurons were added to each dish in neural basal-A media supplemented with Glutamax, Penn/strep and B27. The cells were allowed to grow for 4-6 days Immediately prior to the start of time lapse, the delta T dishes were sealed with a glass coverslip. 100× time-lapse microscopy was performed with a heated objective and heated stage to keep the cells at 37 degrees. Images were obtained every 30 seconds and stitched together to create a time lapse movie. Growth cone and filopodial dynamics were tracked and quantified manually with Metamorph.

[9] = target: PTPσ (Homo sapiens, UniProt Q13332); assay: pull-down assays, wedge domain with PTPσ; assay type: binding
[10] = target: full length LAR (Homo sapiens, UniProt P10586); assay: pull-down assays, wedge domain with full length LAR; assay type: binding
Sequence of full length LAR (P10586 30-1907, species assumed): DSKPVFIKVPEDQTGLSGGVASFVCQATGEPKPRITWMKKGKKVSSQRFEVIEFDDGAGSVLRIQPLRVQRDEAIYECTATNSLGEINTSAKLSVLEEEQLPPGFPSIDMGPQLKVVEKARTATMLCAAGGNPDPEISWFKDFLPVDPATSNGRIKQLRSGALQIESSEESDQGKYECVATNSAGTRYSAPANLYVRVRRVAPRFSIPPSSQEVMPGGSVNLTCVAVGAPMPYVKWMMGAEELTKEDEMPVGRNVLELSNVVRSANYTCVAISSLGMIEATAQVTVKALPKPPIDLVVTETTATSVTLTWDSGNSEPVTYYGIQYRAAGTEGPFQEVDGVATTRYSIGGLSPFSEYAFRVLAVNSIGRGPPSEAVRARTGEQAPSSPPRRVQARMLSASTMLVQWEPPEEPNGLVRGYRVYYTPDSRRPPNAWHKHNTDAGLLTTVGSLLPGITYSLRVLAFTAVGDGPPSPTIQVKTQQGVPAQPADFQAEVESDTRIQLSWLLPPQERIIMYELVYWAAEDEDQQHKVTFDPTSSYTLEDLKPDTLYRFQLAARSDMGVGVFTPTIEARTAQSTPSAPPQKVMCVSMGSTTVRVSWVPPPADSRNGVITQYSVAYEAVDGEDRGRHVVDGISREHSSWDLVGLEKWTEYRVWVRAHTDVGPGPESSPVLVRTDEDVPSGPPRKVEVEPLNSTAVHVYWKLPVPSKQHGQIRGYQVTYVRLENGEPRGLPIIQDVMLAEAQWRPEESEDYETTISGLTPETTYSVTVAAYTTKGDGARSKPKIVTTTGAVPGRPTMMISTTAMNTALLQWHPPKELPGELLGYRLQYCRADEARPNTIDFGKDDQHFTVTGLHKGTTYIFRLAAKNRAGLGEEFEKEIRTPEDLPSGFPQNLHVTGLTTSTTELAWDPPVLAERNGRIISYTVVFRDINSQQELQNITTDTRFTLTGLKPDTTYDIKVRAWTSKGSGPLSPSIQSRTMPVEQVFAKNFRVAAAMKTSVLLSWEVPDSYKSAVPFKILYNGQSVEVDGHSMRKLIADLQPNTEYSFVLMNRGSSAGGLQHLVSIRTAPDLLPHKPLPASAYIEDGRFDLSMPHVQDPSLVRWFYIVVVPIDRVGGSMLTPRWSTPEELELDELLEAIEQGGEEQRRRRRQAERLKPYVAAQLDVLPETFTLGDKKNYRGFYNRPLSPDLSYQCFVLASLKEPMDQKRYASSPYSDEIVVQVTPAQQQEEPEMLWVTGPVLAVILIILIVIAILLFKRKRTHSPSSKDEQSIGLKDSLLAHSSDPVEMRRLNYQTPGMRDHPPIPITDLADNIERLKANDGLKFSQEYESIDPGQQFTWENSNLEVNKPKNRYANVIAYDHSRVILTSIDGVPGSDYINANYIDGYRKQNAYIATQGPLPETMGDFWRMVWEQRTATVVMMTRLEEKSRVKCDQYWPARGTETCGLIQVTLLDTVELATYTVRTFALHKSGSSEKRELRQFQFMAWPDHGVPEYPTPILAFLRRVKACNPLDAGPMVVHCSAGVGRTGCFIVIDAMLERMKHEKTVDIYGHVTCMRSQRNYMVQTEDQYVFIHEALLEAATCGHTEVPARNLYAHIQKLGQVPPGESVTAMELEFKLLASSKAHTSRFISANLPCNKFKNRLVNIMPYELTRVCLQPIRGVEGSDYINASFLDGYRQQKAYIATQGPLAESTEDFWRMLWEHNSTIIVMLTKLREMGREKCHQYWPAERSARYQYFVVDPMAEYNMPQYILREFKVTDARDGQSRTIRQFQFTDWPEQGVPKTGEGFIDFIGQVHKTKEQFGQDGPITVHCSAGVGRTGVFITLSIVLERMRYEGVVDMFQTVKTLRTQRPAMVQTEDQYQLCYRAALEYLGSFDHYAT

Sequence of PTPσ (Q13332 30-1948): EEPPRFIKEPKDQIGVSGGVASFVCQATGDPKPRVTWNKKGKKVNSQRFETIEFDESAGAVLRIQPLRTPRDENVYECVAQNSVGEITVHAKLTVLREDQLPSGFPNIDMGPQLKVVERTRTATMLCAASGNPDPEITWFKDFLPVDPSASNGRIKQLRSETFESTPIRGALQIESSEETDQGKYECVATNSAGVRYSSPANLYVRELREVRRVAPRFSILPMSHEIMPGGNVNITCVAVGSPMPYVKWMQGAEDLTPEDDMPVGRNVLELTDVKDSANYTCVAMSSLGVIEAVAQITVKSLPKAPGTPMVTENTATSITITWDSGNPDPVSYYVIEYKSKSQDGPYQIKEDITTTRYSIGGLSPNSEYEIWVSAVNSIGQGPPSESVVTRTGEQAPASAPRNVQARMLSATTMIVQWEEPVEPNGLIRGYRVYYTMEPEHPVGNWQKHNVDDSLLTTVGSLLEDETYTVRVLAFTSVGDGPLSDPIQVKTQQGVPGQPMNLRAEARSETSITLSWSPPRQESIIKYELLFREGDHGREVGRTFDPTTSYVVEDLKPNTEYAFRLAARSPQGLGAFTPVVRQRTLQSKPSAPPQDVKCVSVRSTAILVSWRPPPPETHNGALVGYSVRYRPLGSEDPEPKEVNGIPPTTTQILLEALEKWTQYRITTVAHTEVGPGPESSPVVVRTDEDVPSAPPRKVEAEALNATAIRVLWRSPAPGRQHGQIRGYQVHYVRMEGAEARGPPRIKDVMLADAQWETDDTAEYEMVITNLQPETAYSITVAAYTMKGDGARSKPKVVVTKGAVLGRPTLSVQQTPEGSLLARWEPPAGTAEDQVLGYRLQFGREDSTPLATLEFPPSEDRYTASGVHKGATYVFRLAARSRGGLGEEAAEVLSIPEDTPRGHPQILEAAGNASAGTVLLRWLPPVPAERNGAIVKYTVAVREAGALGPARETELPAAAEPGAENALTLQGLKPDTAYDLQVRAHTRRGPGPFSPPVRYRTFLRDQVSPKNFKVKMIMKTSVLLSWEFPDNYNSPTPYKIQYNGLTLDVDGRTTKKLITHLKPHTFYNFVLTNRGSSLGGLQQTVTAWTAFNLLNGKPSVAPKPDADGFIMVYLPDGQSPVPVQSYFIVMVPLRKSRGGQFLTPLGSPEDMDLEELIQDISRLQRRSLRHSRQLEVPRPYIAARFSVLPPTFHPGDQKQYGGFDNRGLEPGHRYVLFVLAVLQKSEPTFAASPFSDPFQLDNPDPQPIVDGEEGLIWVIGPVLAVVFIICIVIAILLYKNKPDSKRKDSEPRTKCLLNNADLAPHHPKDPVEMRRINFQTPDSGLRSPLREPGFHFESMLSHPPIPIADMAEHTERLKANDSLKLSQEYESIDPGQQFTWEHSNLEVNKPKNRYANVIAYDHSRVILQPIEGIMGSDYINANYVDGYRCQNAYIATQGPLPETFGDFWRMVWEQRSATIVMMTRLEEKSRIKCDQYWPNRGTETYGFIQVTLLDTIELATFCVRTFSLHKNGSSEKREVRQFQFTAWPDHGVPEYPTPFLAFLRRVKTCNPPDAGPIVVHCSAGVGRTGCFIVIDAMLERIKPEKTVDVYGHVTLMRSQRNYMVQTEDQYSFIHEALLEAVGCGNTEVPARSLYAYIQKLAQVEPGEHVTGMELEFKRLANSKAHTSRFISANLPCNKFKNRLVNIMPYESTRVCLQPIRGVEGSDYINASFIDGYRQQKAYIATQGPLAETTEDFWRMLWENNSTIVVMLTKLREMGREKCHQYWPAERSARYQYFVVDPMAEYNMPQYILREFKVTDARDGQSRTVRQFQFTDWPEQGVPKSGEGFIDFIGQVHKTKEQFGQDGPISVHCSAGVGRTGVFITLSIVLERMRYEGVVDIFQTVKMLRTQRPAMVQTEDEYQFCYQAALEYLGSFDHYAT

## NH2GRKKRRQRRRCIREDDSLMLYALAQEKKESNMHES-NH2 (H-GRKKRRQRRRCIREDDSLMLYALAQEKKESNMHES-NH2; listed as Homo sapiens) [scrambled ISP-TAT peptide, reference compound]
[1]; 5 days in vitro
  neurons extend processes that cross CSPG gradients: Neither vehicle control nor the scrambled ISP-TAT peptide allowed neuronal extensions across the gradient

## NH2GRKKRRQRRRCDMAEHMERLKANDSLKLSQEYESI-NH2 [ISP]
[2]; 6 weeks
  average BBB score: 12
[2]; 7 weeks
  average BBB score: greater than 13
[2]
  BBB recovery over the course of the next 10 weeks: continued to recover
[2]; individual animals
  BBB score reached by individual animals: 19 and 18.5
[2]; rat, in vivo
  animals that regained at least frequent coordinated stepping: 7 of 15
[3]
  coordinated bladder contractions with external urethral sphincter bursting: many animals recovered coordinated bladder contractions with patterned external urethral sphincter bursting
[4]; 14 weeks following spinal cord injury, lumbar spinal cord
  5HT staining throughout the gray matter: dramatic increase
[4]; FIG. 15
  quantified 5HT expression throughout the gray matter: significantly increased
[4]; the two ISP non-responders
  5HT expression in non-responders: did not show a dramatic rise
[1]
  dose dependence of gradient crossing: dose dependent
[1]; 5 days in vitro
  concentration giving optimal crossing of CSPG gradient: 2.5 μm
  neurons extend processes that cross CSPG gradients: allows neurons to extend processes that cross CSPG gradients
[5]; 4 or 8 weeks post injury
  recovery of void frequency: no significant recovery
[5]; 12 weeks post injury
  void frequency: significant increase in void frequency
[5]; rat, in vivo
  animals reaching naïve micturition frequency: multiple animals reaching normal (naïve) micturition frequency levels
[5]; versus vehicle
  increase of post-injury void frequency on average: two fold
[6]; greater than two standard deviations better than vehicle mean
  animals with significant behavioral improvements: 13 of 15
[6]; rat, in vivo
  animals regaining significant function in all three behaviors: 4 animals
[7]; several animals
  foot faults made by several individual animals: less than 3 foot faults
[7]
  foot faults in the grid walk test versus vehicle: significantly fewer foot faults
[8]
  axonal stabilization and over adhesion in time-lapse: prevented axonal stabilization and over adhesion
[8]; 8% in the control condition
  growth cones still motile: 65%

## DLADNIERLKANDGLKFSQEYESI (listed as Rattus rattus) [wedge domain of LAR, 24 amino acid wedge-shaped helix-loop-helix motif of LAR used in pull-down assays]
[9]
  binding to sigma: unable to bind to sigma
[10]
  interaction with full length LAR: able to specifically interact with full length LAR

## NH2GRKKRRQRRRCDLADNIERLKANDGLKFSQEYESI-NH2 (H-GRKKRRQRRRCDLADNIERLKANDGLKFSQEYESI-NH2; listed as Homo sapiens) [ILP, LAR wedge domain peptide conjugated to HIV-TAT]
[2]
  BBB recovery over the course of the next 10 weeks: recovered only slightly beyond this point
[1]; 5 days in vitro
  neurons extend processes that cross CSPG gradients: also allows neurons to traverse gradients of CSPG
[5]; naïve animals urinate twice per hour
  void frequency (absolute): once every two hours
[5]; versus naïve animals
  volume/void: significantly increased
[7]
  foot faults in the grid walk test versus vehicle: very slight insignificant improvement
